Laboratory results reported in US7026318B2 (Shionogi & Co., Ltd., priority 2000, dated 2006).

What was measured:
human type X sPLA2 [1] = molecular target: T1, human type X sPLA2 (Homo sapiens, UniProt O15496); test: Type X sPLA2-induced fatty acid release from isolated human lipoproteins (LDL); assay type: biochemical; conditions: compound 10 μM; human LDL 0.5 mg/mL; 10 nmol/L human type X sPLA2, 4 hr at 37° C.; read-out: % of Inhibition (10 μM)
T1 construct: made in house; unpurified culture supernatant
T1 sequence (O15496 43-165): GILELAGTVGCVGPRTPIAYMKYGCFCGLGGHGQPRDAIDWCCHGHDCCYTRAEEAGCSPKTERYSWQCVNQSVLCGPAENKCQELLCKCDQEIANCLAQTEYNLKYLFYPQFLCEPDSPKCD
Experimental: Examination 17: Effects of sPLA2 Inhibitors on Type X sPLA2-Induced Fatty Acid Release From Isolated Human Lipoproteins.
LDL was isolated from human plasma by sequential ultracentrifugation method (Havel et al. J. Clin. Invest. 34,1345–1353 (1955)). LDL (0.5 mg/mL) was incubated with 10 nmol/L of human type X sPLA2 in the assay mixture containing 12.5 mmol/L Tris-HCl buffer (pH 8.0), 125 mg/L bovine serum albumin and 1 mmol/L calcium chloride for 4 hr at 37° C. Fatty acids released from lipoprotein were extracted by Dole's method (Dole et al. J. Biol. Chem. 235, 2595–2599 (1960)), labeled with 9-anthryldiazomethane according to a known method (Hanasaki et al., J. Biol. Chem. 274, 34203–34211 (1999)) and measured by detecting the fluorescence of labeled fatty acids using reverse-phase high performance chromatography (LiChroCART 125-4 Superspher 100 RP-18 column (Merck). For the inhibition assay of drugs, sPLA2 inhibitors (final concentration of 10 μM) were added at almost the same time as the addition of sPLA2 into the reaction solution. The results are presented in Table 10.

human type X sPLA2 [2] = molecular target: T1, human type X sPLA2; test: Human type X sPLA2-induced oleic acid release in human colon carcinoma HT-29 cells; assay type: cell-based; conditions: compound 10 μM, 100 nM human type X sPLA2, 30 min, percentage of the increase by type X sPLA2 (no treatment group = 100)
Experimental: Examination 15: Effects of sPLA2 Inhibitors on Human Type X sPLA2-Induced Oleic Acid Release in Human Colon Calcinoma Cell Lines, HT-29 Cells.
Human colon calcinoma cell lines, HT-29 cells (obtained from ATCC) were cultured in DMEM supplemented with 10% fetal calf serum. The cells were washed by phosphate-buffered saline (PBS), detached from culture plates by treatment with trypsin/EDTA solution and further washed by PBS. The resulting cells were resuspended in Hanks' buffered saline containing 0.1% bovine serum albumin (BSA) at a density of 12.5×10^6 cells/mL. Aliquots of the cell suspension (0.4 ml) were transferred into polypropylene tubes and test compounds dissolved in DMSO solution (final concentration; 10 μM) were added. After preincubation for 10 min at 37° C., 100 nM purified human type X sPLA2 enzyme (Hanasaki et al J. Biol. Chem. (1999) 274, 34203–34211) was added (final volume of 0.5 mL). After incubation for 30 min at 37° C., the reaction was stopped by the addition of 2 ml Dole's reagent (heptane:2-propanol:1M H2SO4=10:40:1, v/v/v).

human type X sPLA2 [3] = molecular target: T1, human type X sPLA2; test: Inhibition test of human secretory phospholipase A2, chromogenic assay, type X enzyme; assay type: biochemical
human type X sPLA2 [4] = molecular target: T1, human type X sPLA2; test: Type X sPLA2-induced PGE2 production in human colon carcinoma HT-29 cells; assay type: cell-based; conditions: compound 10 μM; TNF-α-treated HT-29 cells; 100 nM human type X sPLA2, 3 h; percentage of PGE2 produced by type X sPLA2 (no treatment group = 100)
Experimental: Examination 16: Effects of sPLA2 Inhibitors on Type X sPLA2-Induced PGE2 Production in Human Colon Carcinoma Cell Lines, HT-29 Cells.
HT-29 cells were seeded into 24-well plates at a density of 2.5×10^5 cells/well. After incubation for 24 h, the cells were washed three times with PBS and incubated with 30 ng/mL of recombinant human tumor necrosis factor-α (R&D Systems, Inc.) in DMEM medium supplemented with 10% fetal bovine serum for 18 h at 37° C. After washing with PBS, the cells were preincubated with or without test compounds (at a final concentration of 10 μM; dissolved in DMSO) in Hanks' buffered saline containing 0.1% BSA for 10 min at 37° C., and then stimulated with 100 nM purified human type X sPLA2 enzyme in a final volume of 0.5 mL. After incubation for 3 h at 37° C, the culture supernatant was collected following the centrifugation for the removal of floating cells, and its PGE2 content was quantified with an enzyme-immunoassay kit (Cayman Chemicals Co.). From each data, the value in the absence of type X sPLA2 was subtracted. The amount of PGE2 in the presence of each test compound was expressed as the percentage of the PGE2 content produced by the addition of type X sPLA2 enzyme.

[5] = molecular target: human type I enzyme (sPLA2) (Homo sapiens, UniProt P04054); test: Inhibition test of human secretory phospholipase A2, chromogenic assay, type I enzyme; assay type: biochemical; conditions: recombinant human sPLA2 type I, chromogenic assay, 30 min; read-out: IC50 type I
[6] = molecular target: T2, human type II enzyme (sPLA2) (Homo sapiens, UniProt P14555); test: Inhibition test of human secretory phospholipase A2, chromogenic assay, type II enzyme; assay type: biochemical; conditions: human sPLA2 type II, chromogenic assay, 30 min; read-out: IC50 type II
T2 sequence (P14555 21-144): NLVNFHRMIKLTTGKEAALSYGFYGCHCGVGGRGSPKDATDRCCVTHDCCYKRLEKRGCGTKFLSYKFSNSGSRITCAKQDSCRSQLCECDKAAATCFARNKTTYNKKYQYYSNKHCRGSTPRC

human type V sPLA2 = molecular target: T3, human type V sPLA2 (Homo sapiens, UniProt P39877); test: Inhibition test of human secretory phospholipase A2, chromogenic assay, type V enzyme; assay type: biochemical; conditions: human sPLA2 type V (CHO supernatant), chromogenic assay, 45 min; read-out: IC50 type V
T3 construct: made in house; unpurified culture supernatant
T3 sequence (P39877 21-138): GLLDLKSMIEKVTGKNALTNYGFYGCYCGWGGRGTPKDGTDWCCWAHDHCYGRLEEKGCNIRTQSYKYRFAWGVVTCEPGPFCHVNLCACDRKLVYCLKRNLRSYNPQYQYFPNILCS

Chain of human type I enzyme (sPLA2) (P04054 23-148): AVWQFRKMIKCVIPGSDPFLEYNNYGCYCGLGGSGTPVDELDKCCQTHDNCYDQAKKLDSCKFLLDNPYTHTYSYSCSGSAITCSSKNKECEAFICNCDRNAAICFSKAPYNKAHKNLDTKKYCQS

SMILES: CC(C)Cc1c(C(=O)C(N)=O)c2c(OCC(=O)O)cccc2n1Cc1ccccc1 [Compound I-10]
- inhibition at 10 µM (human type X sPLA2 [1]): 91.3%
- Oleic acid release (human type X sPLA2 [2]): −0.2 ± 5.7 %
- IC50 (human type X sPLA2 [3]): 0.013 µM
- PGE2 production (human type X sPLA2 [4]): −12.7 ± 7.9 %
- IC50 [5]: > 0.7 µM
- IC50 [6]: > 1 µM
- IC50 (human type V sPLA2): > 1 µM
